Measured values reported in ChEMBL document CHEMBL1201862, “PubChem BioAssay data set” (2004).
The source made the active and inactive calls.

Experiments:
[1] = molecular target: T1, Endoribonuclease toxin MazF (Escherichia coli K-12, UniProt P0AE70); assay: MazF toxin RNase activators, dose response, biochemical, fluorescence, single-stranded RNA substrate, uHTS hits (AID 588481); type: functional
T1 sequence (P0AE70 whole entry): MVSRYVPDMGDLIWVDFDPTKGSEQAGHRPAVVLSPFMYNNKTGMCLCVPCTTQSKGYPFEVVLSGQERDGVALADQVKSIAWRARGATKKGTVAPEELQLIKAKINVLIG

[2] = molecular target: T1, Endoribonuclease toxin MazF; assay: fluorescent RNA oligo signal without MazF, dose response, counter-screen for MazEF activator project, biochemical, fluorescence, single-stranded RNase substrate (AID 588502); type: functional
[3] = test system: Streptococcus; assay: Group A Streptococcus viability loss, dose response, counter-screen for streptokinase expression inhibitor project, luminescence, BacTiterGlo (AID 1915); type: functional, organism-based;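 also: potency for reduction of bacterial viability or growth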
[4] = test system: Streptococcus sp. 'group A'; assay: growth inhibition of control SK(-) GAS strain, dose response, counter-screen for streptokinase expression inhibitor project, luminescence, kanamycin, BacTiterGlo, confirmation (AID 1900); type: functional, organism-based
[5] = molecular target: T2, Type-1 angiotensin II receptor (Homo sapiens, UniProt P30556); assay: AT1 receptor antagonists, dose response, selectivity assay for APJ receptor antagonist project, cell-based, uHTS hits (AID 463214); type: functional;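 also: antagonist potency against angiotensin II stimulated AT1 response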
T2 sequence (P30556 whole entry): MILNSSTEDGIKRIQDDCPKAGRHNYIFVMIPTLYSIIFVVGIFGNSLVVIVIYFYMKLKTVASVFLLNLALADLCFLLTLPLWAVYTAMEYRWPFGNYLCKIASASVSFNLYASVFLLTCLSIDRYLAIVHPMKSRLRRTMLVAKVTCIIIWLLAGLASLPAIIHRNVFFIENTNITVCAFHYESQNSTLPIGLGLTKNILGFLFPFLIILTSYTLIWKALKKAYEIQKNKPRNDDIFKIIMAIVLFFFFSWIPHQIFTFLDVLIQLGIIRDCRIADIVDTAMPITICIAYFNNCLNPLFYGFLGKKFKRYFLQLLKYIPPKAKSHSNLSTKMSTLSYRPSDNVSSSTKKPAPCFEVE

[6] = molecular target: Beta-galactosidase (Escherichia coli, UniProt Q8VNN2); assay: PubChem AID 485352; type: functional
[7] = molecular target: Ras and Rab interactor 1/Tyrosine-protein kinase ABL1 (Homo sapiens, UniProt P00519+Q13671); type: functional;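 also: biochemical TR-FRET dose-response test measuring inhibition of binding between Rin1 and Abl proteins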
[8] = test system: INS1; assay: beta cell apoptosis inhibitors, cytokine rescue, dose response, luminescence, retest (AID 449756); type: functional, cell-based; details: Rattus norvegicus;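 also: cell death triggered by IL-1 beta plus TNF-alpha plus IFN-gamma mixture; protective hits raise ATP signal compared with cytokine alone wells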
[9] = molecular target: T3, Apoptotic protease-activating factor 1 (Homo sapiens, UniProt O14727); type: functional
T3 sequence (O14727 whole entry): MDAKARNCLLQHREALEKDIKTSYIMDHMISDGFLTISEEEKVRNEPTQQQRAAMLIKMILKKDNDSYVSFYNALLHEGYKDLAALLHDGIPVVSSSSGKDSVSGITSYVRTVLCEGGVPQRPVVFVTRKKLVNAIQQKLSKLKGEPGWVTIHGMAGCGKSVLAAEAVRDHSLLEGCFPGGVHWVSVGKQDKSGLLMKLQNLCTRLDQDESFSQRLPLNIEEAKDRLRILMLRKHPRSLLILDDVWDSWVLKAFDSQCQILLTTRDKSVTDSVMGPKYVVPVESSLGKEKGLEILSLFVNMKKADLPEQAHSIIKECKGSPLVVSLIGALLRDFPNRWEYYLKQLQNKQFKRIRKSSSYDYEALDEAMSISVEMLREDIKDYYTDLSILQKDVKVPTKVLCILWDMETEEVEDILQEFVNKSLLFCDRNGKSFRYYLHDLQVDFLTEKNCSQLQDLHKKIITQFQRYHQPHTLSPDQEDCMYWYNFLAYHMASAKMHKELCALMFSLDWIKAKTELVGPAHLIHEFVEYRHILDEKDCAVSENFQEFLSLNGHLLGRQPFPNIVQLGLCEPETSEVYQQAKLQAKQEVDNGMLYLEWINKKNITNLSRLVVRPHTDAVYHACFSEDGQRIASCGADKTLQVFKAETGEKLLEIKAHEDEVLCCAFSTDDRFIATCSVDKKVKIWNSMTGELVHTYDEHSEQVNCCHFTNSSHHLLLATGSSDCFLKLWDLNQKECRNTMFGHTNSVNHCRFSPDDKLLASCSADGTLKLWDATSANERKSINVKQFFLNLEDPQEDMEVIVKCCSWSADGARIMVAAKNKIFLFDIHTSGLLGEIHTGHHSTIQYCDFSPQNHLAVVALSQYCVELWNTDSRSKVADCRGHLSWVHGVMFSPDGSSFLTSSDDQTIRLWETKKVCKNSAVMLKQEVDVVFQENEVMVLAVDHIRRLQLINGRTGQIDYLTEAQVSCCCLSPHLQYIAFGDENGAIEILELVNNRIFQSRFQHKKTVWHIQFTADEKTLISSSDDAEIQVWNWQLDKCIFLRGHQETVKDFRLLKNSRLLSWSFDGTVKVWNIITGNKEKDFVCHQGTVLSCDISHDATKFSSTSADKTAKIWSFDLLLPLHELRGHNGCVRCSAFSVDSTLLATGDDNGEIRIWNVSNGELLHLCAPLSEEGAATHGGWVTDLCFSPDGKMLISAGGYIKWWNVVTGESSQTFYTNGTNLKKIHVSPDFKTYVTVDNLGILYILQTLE

[10] = molecular target: Genome polyprotein (dengue virus type 2, UniProt P29990); assay: Dengue-2 NS5 methyltransferase inhibitors, primary screen, biochemical, confirmation dose response (AID 588689); type: functional
[11] = molecular target: Phospholipase A2 (Homo sapiens, UniProt P04054); type: functional;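 also: confirmatory dose-response counterscreen on phospholipase A2, testing hits that came from an ultra-high-throughput screen for ATG4B inhibitors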
[12] = test system: Vero; assay: Vero cell cytotoxicity, cytotoxicity control for flavivirus capping enzyme inhibitors (AID 588742); type: functional; details: Chlorocebus sabaeus
[13] = molecular target: T4, Cysteine protease ATG4B (Homo sapiens, UniProt Q9Y4P1); type: functional;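 also: Fluorescence-based dose-response confirmation assay measuring inhibition of ATG4B activity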
T4 sequence (Q9Y4P1 whole entry): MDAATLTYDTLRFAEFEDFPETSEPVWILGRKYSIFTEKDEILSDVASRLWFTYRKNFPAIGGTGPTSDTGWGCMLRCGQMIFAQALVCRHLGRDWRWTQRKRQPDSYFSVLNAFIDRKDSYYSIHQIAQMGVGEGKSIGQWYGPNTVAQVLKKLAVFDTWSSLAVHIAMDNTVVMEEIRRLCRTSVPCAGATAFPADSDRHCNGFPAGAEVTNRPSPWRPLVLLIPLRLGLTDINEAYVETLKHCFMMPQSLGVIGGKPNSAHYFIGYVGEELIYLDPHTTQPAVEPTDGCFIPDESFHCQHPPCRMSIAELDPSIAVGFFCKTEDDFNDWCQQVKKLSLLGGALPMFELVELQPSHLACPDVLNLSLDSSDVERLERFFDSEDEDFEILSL

[14] = molecular target: T5, Insulin-degrading enzyme (Homo sapiens, UniProt P14735); assay: activators of recombinant IDE enzyme, dose response, counter-screen for IDE activator project, biochemical, fluorescence polarization (AID 588681)
T5 sequence (P14735 whole entry): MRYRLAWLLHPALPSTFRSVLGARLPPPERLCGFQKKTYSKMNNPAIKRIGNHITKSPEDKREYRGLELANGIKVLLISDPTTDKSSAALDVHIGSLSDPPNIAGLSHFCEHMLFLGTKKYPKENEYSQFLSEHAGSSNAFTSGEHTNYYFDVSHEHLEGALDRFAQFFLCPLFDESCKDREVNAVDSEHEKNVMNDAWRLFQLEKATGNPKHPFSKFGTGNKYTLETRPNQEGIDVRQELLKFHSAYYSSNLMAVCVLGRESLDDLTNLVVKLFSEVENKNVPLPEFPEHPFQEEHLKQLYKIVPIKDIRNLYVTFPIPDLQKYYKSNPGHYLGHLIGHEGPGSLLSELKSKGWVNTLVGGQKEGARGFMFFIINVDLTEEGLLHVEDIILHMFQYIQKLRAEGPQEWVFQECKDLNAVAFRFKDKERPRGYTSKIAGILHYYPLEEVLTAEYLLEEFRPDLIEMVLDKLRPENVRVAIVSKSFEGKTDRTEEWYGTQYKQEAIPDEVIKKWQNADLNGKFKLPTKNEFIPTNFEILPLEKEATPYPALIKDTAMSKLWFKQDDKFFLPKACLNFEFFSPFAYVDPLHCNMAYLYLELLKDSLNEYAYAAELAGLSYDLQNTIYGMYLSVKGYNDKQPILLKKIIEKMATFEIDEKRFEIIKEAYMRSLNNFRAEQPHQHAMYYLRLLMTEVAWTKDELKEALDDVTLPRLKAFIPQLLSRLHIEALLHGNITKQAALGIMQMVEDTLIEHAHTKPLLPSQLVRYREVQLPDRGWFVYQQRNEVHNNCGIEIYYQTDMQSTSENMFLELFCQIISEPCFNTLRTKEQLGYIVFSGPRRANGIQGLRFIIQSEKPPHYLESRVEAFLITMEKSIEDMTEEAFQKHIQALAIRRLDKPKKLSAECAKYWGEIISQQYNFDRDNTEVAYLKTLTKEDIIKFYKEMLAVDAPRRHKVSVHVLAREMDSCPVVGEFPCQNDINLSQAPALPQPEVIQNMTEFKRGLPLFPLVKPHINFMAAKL

[15] = molecular target: T5, Insulin-degrading enzyme; assay: activators of endogenous IDE in HEK cells, dose response, cell-based, fluorescence polarization (AID 588439); type: functional
[16] = test system: HEK293; assay: optical interference in Abeta FP readout, dose response, artefact control for IDE activator project, biochemical, fluorescence polarization (AID 588442); type: functional, cell-based; details: Homo sapiens
[17] = test system: HEK293; assay: HEK cell cytotoxicity by LDH release, dose response, cytotoxicity control for IDE activator project, fluorescence, HEK cells (AID 588440); type: functional, cell-based; details: Homo sapiens;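 also: cytotoxicity by LDH release measuring loss of membrane integrity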
[18] = molecular target: Melanocortin receptor 4 (Homo sapiens, UniProt P32245); type: functional, cell-based;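 also: Cell-based assay with luminescence read-out, confirmatory dose-response testing for agonist activity of biased ligands at MC4R; human U2OS cells with tagged receptor and beta-arrestin; potency of agonists that increase receptor coupling to beta-arrestin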
[19] = test system: Vero; assay: cells; type: functional, cell-based; details: Chlorocebus sabaeus
[20] = test system: Vero; assay: cells; type: functional; details: Chlorocebus sabaeus
[21] = molecular target: Aryl hydrocarbon receptor (Homo sapiens, UniProt P35869); details: Potency;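 also: confirmatory quantitative high-throughput screen measuring activation of the AhR signaling pathway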
[22] = test system: P388/ADR; assay: cells; type: functional; details: Mus musculus
[23] = test system: P388; assay: cells; type: functional; details: Mus musculus
[24] = test system: SN12K1; assay: cells; type: functional; details: Homo sapiens

Chain of Beta-galactosidase (Q8VNN2 whole entry): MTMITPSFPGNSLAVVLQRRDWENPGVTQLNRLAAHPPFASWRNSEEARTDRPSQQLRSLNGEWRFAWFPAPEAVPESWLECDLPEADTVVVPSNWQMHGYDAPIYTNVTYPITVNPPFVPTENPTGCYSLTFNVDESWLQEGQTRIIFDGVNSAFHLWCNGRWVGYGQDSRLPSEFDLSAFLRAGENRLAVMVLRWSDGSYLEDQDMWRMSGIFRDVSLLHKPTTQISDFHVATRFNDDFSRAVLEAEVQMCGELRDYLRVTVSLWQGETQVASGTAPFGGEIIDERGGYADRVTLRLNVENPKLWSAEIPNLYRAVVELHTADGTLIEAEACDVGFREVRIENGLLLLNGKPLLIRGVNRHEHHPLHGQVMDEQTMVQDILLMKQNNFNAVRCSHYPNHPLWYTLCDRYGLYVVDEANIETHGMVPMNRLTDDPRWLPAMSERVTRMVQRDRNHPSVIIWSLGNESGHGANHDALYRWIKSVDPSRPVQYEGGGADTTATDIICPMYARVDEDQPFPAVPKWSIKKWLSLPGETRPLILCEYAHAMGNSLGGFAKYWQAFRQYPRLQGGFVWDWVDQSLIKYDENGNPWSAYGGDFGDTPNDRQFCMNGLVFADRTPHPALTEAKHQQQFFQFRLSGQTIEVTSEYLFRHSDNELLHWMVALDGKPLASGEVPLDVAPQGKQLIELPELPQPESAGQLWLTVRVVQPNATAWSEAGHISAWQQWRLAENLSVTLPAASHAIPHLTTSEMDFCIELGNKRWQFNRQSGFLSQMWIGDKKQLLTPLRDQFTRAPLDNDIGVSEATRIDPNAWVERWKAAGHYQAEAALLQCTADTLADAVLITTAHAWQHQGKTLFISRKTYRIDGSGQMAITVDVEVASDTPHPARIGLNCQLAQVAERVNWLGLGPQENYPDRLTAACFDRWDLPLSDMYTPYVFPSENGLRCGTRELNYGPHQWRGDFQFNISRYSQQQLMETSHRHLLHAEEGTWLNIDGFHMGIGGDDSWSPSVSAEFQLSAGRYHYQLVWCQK
Chain of Aryl hydrocarbon receptor (P35869 whole entry): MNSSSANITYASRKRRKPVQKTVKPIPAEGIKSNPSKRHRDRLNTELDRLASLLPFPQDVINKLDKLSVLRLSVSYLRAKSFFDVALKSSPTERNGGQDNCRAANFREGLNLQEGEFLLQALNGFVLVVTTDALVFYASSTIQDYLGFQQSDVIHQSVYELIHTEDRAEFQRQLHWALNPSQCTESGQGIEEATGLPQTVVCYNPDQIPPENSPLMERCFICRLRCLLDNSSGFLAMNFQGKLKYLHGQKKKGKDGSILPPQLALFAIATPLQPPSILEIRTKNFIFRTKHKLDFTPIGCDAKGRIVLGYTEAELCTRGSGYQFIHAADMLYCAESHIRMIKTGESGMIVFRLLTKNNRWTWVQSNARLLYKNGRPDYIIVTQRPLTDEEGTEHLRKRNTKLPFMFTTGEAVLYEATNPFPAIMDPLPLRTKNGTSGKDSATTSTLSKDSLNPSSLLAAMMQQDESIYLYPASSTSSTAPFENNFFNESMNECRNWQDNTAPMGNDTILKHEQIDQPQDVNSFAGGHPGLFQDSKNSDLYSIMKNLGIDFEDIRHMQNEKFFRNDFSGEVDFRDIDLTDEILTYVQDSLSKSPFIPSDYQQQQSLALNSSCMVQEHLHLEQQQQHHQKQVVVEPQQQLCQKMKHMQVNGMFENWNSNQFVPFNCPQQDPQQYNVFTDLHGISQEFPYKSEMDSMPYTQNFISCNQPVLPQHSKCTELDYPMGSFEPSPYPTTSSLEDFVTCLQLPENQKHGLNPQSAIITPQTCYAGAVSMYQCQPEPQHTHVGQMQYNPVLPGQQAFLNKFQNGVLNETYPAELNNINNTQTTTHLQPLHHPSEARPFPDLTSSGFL
Chain of Melanocortin receptor 4 (P32245 whole entry): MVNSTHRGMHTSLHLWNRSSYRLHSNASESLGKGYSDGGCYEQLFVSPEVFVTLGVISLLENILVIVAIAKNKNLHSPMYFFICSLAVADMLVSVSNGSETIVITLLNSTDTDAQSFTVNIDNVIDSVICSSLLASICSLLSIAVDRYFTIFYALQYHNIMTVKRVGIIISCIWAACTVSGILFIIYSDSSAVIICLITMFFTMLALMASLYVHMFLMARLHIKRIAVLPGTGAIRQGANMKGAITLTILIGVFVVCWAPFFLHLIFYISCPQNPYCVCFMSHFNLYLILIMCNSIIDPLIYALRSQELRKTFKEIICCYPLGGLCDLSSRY
Chain of Ras and Rab interactor 1/Tyrosine-protein kinase ABL1 (P00519 whole entry): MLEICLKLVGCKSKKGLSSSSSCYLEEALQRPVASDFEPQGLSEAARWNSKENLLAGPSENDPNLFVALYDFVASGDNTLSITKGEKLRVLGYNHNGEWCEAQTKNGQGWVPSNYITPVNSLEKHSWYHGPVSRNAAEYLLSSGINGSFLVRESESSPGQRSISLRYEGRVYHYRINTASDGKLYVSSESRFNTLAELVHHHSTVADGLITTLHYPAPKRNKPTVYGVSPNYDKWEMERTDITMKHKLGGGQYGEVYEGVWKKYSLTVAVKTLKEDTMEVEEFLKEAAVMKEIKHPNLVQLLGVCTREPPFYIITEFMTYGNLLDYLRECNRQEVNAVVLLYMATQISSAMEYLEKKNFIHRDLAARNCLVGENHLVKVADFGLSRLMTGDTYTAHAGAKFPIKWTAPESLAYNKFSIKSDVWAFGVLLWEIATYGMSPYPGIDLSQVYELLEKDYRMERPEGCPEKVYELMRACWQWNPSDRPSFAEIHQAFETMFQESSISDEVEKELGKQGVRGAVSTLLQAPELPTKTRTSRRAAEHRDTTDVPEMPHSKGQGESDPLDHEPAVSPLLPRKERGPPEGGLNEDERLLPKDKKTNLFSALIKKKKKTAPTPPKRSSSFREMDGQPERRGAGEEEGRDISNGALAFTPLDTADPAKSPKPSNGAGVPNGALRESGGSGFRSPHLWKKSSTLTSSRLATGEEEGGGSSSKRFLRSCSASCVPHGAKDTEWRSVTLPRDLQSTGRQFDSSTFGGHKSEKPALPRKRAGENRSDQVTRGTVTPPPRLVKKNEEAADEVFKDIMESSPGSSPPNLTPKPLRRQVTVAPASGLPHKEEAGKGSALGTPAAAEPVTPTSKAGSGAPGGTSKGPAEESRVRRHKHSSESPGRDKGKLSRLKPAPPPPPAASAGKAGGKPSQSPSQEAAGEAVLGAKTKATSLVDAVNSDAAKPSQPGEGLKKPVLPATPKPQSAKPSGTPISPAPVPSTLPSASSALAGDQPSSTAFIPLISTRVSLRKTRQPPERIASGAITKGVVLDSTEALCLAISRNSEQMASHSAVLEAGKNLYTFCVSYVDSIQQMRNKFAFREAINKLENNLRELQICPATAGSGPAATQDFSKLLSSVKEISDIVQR
Chain of Ras and Rab interactor 1/Tyrosine-protein kinase ABL1 (Q13671 whole entry): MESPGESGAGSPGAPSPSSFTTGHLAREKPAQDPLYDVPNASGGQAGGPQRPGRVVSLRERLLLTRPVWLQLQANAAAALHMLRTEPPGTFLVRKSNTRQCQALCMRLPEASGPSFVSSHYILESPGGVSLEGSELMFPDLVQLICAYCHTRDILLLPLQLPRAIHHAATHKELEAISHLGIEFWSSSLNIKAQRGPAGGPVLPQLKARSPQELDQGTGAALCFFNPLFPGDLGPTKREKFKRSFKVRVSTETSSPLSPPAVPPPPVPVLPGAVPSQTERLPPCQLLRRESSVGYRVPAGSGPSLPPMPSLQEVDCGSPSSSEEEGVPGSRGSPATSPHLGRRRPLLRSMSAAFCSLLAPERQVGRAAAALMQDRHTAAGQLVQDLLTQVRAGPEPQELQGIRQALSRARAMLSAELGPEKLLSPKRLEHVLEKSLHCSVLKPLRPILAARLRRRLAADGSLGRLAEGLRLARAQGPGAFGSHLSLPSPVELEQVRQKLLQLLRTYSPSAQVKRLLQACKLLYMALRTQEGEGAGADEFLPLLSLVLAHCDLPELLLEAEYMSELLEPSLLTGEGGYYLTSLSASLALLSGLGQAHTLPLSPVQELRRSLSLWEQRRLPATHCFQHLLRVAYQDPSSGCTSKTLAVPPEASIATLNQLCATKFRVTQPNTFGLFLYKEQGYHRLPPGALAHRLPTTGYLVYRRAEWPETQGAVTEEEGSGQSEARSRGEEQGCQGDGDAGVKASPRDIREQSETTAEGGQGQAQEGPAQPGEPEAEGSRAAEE
Chain of Phospholipase A2 (P04054 whole entry): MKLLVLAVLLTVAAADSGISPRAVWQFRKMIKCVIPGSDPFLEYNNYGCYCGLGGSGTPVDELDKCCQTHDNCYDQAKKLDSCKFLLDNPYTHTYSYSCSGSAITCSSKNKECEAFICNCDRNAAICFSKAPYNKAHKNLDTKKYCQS

## CNc1ccc(/C=C(\C#N)C(=O)Nc2ccccn2)cc1[N+](=O)[O-]
[1]
  EC50: > 99 µM (inactive)
[2]
  EC50: 39.2 µM (inactive)

## COC(=O)CSc1nc2cc(OC)ccc2cc1C#N
[1]
  EC50: > 99 µM (inactive)
[2]
  EC50: 48.4 µM (inactive)

## O=C(CN1c2ccccc2Sc2ccccc21)NNC(=S)Nc1ccc(Cl)cc1
[3]
  EC50: 3.6 µM (active)
[4]
  EC50: 3.35 µM (active)
[5]
  IC50: > 40 µM (not active)
[6]
  EC50: > 40 µM (inactive)

## COc1ccc(/C=C/C(=O)NC(=S)NNC(=O)c2c(-c3ccccc3)noc2C)cc1
[5]
  IC50: 35.5 µM (not active)
[6]
  EC50: > 40 µM (inactive)

## COc1cccc(CSc2nnc(CSc3nc4nc(C)cc(C)n4n3)s2)c1
[7]
  IC50: 7.8 µM (active)

## Oc1ccc(Br)cc1CNc1cccc2cccnc12
[8]
  AC50: 3.24 µM (active)
[9]
  IC50: 34.6 µM (active)

## Cc1ccccc1S(=O)(=O)N1[C@@H](c2ccc(Br)cc2)C(C(=O)O)=CC[C@H]1c1ccc(Cl)cc1
[10]
  IC50: 41.4 µM (active)
[11]
  IC50: 6.72 µM (active)
[12]
  CC50: > 40 µM (active)
[13]
  IC50: 7.71 µM (active)

## Cc1ccc(N/C=C(\C#N)S(=O)(=O)c2ccccc2)cc1
[14]
  EC50: > 54.7 µM (inactive)
[15]
  EC50: > 54.7 µM (inactive)
[16]
  EC50: > 56 µM (inactive)
[17]
  IC50: > 89.3 µM (inactive)

## CC1=C(C(=O)OCc2ccccc2)C(c2ccc(Br)cc2)NC(=O)N1CCCCCC(=O)O (stereo unspecified)
[14]
  EC50: > 54.7 µM (inactive)
[15]
  EC50: > 54.7 µM (inactive)
[16]
  EC50: > 55.9 µM (inactive)
[17]
  IC50: > 89.2 µM (inactive)

## COc1ccc(-c2cc(NC(C)=O)c3ncc(-c4cccc(C(F)(F)F)c4)n3c2)c(OC)c1
[18]
  EC50: > 89.2 µM (inactive)

## CN(C)c1ccc(C=C2C(=O)NC(=S)NC2=O)cc1
[19]
  IC50: > 25 µM (active)
[20]
  CC50: 22.2 µM (active)
[12]
  CC50: 31.4 µM (active)

## CC1(C)Oc2ccc3ccc(=O)oc3c2C(/C=N/NC(N)=O)=C1O
[5]
  IC50: > 40 µM (not active)
[6]
  EC50: > 40 µM (inactive)

## Cc1nn(C)c(Oc2ccccc2)c1/C=N/OCc1ccc(C(=O)OC(C)(C)C)cc1 [FENPYROXYMATE]
[21]
  AC50: 44.7 µM (inconclusive)

## O=C1C=C2C(=CCOC2O)O1 (stereo unspecified) [PATULIN]
[21]
  AC50: 12.6 µM (inconclusive)
[22]
  GI50: 0.318 µM (active)
[23]
  GI50: 0.135 µM (active)
[24]
  GI50: 0.998 µM (active)
